Laboratory results published in patent US10508120B2, “TYK2 inhibitors and uses thereof” (Nimbus Lakshmi, Inc., priority 2017, dated 2019).

Columns and labels:
[1] = molecular target: human TYK2 (JH2domain-pseudokinase) (Homo sapiens (Human), UniProt P29597); test: TYK2 JH2 Domain Binding Assay (KINOMEscan)
Procedure, shortened: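 Competition binding of a DNA-tagged fusion of human TYK2 JH2 pseudokinase (G556–D888) with NFkB DNA-binding domain, from HEK293 extracts (<0.1 nM final), against immobilised ligand beads; 1 h shaking at room temperature, 0.9% DMSO. Bound kinase quantified by qPCR.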

[2] = molecular target: Tyk2 kinase domain (DH1) (Homo sapiens (Human), UniProt P29597); test: Tyk2 Radioactive Kinase Assay; assay type: biochemical; conditions: 10 μM compound; 10 μM ATP; read-out: Tyk2 JH1% Inhibition @ 10 μM
Chain of Tyk2 kinase domain (DH1) (P29597 897-1176): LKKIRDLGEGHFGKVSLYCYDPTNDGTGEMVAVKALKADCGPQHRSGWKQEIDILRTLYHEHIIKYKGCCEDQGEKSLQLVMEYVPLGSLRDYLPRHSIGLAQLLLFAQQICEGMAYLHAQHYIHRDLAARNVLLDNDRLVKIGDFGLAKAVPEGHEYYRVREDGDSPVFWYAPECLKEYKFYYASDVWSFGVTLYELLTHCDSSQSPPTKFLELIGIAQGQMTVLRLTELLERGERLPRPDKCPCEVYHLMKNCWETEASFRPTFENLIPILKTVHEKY
Procedure, shortened: (§1)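 Read-out is percent inhibition from a radioactive kinase reaction, measured with compound at 10 μM.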

[3] = molecular target: JAK2 kinase domain (JH1) (Homo sapiens (Human), UniProt O60674); test: JAK2 Radioactive Kinase Assay; assay type: biochemical; conditions: 10 μM compound; 10 μM ATP; read-out: JAK2 JH1% Inhibition @ 10 μM
Chain of JAK2 kinase domain (JH1) (O60674 849-1124): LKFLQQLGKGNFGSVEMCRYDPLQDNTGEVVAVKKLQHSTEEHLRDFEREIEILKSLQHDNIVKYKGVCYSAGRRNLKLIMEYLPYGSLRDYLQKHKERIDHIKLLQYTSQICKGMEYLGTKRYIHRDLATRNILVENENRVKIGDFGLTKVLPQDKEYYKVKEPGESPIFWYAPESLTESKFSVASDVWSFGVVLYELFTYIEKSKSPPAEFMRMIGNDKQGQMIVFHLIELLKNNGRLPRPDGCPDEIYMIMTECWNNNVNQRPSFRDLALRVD
Procedure, shortened: as §1

Chain of human TYK2 (JH2domain-pseudokinase) (P29597 556-888): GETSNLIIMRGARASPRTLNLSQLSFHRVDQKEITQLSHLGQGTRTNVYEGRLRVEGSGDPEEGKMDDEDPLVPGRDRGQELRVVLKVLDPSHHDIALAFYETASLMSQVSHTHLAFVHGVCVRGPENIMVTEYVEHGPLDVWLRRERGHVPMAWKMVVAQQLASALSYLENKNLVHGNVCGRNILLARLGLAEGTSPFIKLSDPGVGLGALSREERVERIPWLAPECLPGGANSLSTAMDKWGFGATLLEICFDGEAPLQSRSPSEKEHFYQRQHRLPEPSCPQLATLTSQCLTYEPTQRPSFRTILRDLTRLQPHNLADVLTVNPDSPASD

| Kd [1] [pM] | inhibition at 10 µM [2] [%] | inhibition at 10 µM [3] [%] | Compound |
| --- | --- | --- | --- |
| < 200 | < 50 | < 50 | CNc1cc(Nc2cccn(C3CCN(CCF)CC3)c2=O)nc2c(C(=O)NCC3(CO)CC3)cnn12 [I-846] |
| < 200 | < 50 | < 50 | CNc1cc(Nc2cccn(C3CCCN(CCF)C3)c2=O)nc2c(C(=O)NC3CC3)cnn12 (stereo not drawn) [I-848] |
| 1000 to 10000 | < 50 | < 50 | CNc1cc(Nc2cccn(-c3cccnc3C)c2=O)nc2c(C(=O)NCC(C)(C)CO)cnn12 [I-850] |
| < 200 | < 50 | < 50 | CNc1cc(Nc2cc(Cl)cn([C@@H]3CCCN(C)C3)c2=O)nc2c(C(=O)N[C@@H]3C[C@@H]3F)cnn12 [I-853] |
| 1000 to 10000 | < 50 | < 50 | CNc1cc(-c2cn(CCN3CCOCC3)c3ncccc23)nc2c(C(=O)N[C@@H]3COC[C@@H]3O)cnn12 [I-855, N-((3R,4R)-4-hydroxytetrahydrofuran-3-yl)-7-(methylamino)-5-(1-(2-morpholinoethyl)-1H-pyrrolo[2,3-b]pyridin-3-yl)pyrazolo[1,5-a]pyrimidine-3-carboxamide] |
| 200 to 1000 | < 50 | < 50 | CNc1cc(-c2cn(CCN3CCOCC3)c3ncccc23)nc2c(C(=O)N[C@H]3COC[C@H]3O)cnn12 [I-856, N-((3S,4S)-4-hydroxytetrahydrofuran-3-yl)-7-(methylamino)-5-(1-(2-morpholinoethyl)-1H-pyrrolo[2,3-b]pyridin-3-yl)pyrazolo[1,5-a]pyrimidine-3-carboxamide] |
| < 200 | < 50 | < 50 | CNc1cc(Nc2cccc3ocnc23)nc2c(C(=O)N[C@H]3CC[C@@H]3O)cnn12 [I-858, 5-(benzo[d]oxazol-4-ylamino)-N-((1S,2S)-2-hydroxycyclobutyl)-7-(methylamino)pyrazolo[1,5-a]pyrimidine-3-carboxamide] |
| < 200 | < 50 | < 50 | CNc1cc(Nc2cccc(-c3cn(C)nc3F)n2)nc2c(C(=O)NC3CC3)cnn12 [I-859] |
| < 200 | < 50 | < 50 | CNc1cc(Nc2cccn([C@H]3C[C@@H]3F)c2=O)nc2c(C(=O)NC3CC3)cnn12 [I-867] |
| < 200 | < 50 | < 50 | CNc1cc(Nc2cccn(-c3ncccc3F)c2=O)nc2c(C(=O)NC[C@H](C)CO)cnn12 [I-868] |
| < 200 | < 50 | < 50 | CNc1cc(Nc2cccn(-c3ncccc3F)c2=O)nc2c(C(=O)NC[C@@H](C)CO)cnn12 [I-869] |
| 200 to 1000 | < 50 | < 50 | CNc1cc(Nc2cccn(C3CC4(COC4)C3)c2=O)nc2c(C(=O)N[C@@H]3CC[C@@H]3O)cnn12 [I-871] |
| < 200 | < 50 | < 50 | CNc1cc(Nc2cccc(N3CC4(CCO4)C3)n2)nc2c(C(=O)N[C@H]3CC[C@H]3O)cnn12 [I-872] |
| 1000 to 10000 | < 50 | < 50 | CNc1cc(Nc2cccc(N3CC4(CCO4)C3)n2)nc2c(C(=O)N[C@@H]3CC[C@@H]3O)cnn12 [I-873] |
| 1000 to 10000 | < 50 | < 50 | CNc1cc(-c2cn(CCN3CCCCC3)c3ncccc23)nc2c(C(=O)N[C@@H]3CC[C@@H]3O)cnn12 [I-874] |
| < 200 | < 50 | < 50 | CNc1cc(-c2cn(CCN3CCCCC3)c3ncccc23)nc2c(C(=O)N[C@H]3CC[C@H]3O)cnn12 [I-875] |

| Kd [1] [pM] | inhibition at 10 µM [2] [%] | inhibition at 10 µM [3] [%] | Compound |
| --- | --- | --- | --- |
| 1000 to 10000 | < 50 | < 50 | CNc1cc(Nc2cccn([C@@H]3CCCC[C@@H]3O)c2=O)nc2c(C(=O)NC3CC3)cnn12 [I-879] |
| < 200 | < 50 | < 50 | CNc1cc(Nc2cccn([C@H]3CCCN(CCF)C3)c2=O)nc2c(C(=O)NC3CC3)cnn12 [I-880] |
| 200 to 1000 | < 50 | < 50 | CNc1cc(Nc2cccn([C@@H]3CCCN(CCF)C3)c2=O)nc2c(C(=O)NC3CC3)cnn12 [I-881] |
| < 200 | < 50 | < 50 | CNc1cc(Nc2cccn([C@H]3CCC[C@H](OC)C3)c2=O)nc2c(C(=O)N[C@@H]3C[C@@H]3F)cnn12 [I-882] |
| 1000 to 10000 | < 50 | < 50 | CNc1cc(Nc2cccn([C@@H]3CCCC[C@@H]3O)c2=O)nc2c(C(=O)N[C@@H]3C[C@@H]3F)cnn12 [I-889] |
| < 200 | < 50 | < 50 | CNc1cc(Nc2cccn(C(C)C)c2=O)nc2c(C(=O)N[C@H]3CC[C@H]3O)cnn12 [I-894] |
| 200 to 1000 | < 50 | < 50 | CNc1cc(Nc2cccn(C3CCN(CCF)CC3)c2=O)nc2c(C(=O)N[C@@H]3CC[C@@H]3O)cnn12 [I-897] |
| < 200 | < 50 | < 50 | CNc1cc(Nc2cccn(C3CCN(CCF)CC3)c2=O)nc2c(C(=O)N[C@H]3CC[C@@H]3O)cnn12 [I-899] |
| 200 to 1000 | < 50 | < 50 | CNc1cc(Nc2cccn([C@@H]3CCCN(CCF)C3)c2=O)nc2c(C(=O)N[C@@H]3C[C@@H]3F)cnn12 [I-901] |
| 200 to 1000 | < 50 | < 50 | CNc1cc(-c2cn(CCN3CCN(C)CC3)c3ncccc23)nc2c(C(=O)N[C@@H]3CC[C@@H]3O)cnn12 [I-907, N-((1R,2S)-2-hydroxycyclobutyl)-7-(methylamino)-5-(1-(2-(4-methylpiperazin-1-yl)ethyl)-1H-pyrrolo[2,3-b]pyridin-3-yl)pyrazolo[1,5-a]pyrimidine-3-carboxamide] |
| < 200 | < 50 | < 50 | CNc1cc(Nc2cccn([C@H]3CC[C@@]4(CCCO4)CC3)c2=O)nc2c(C(=O)NC3CC3)cnn12 [I-910] |
| 200 to 1000 | < 50 | < 50 | CNc1cc(Nc2cccn(C3CCCN(CCC#N)C3)c2=O)nc2c(C(=O)N[C@@H]3C[C@@H]3F)cnn12 (stereo partly drawn) [I-912] |
| 200 to 1000 | < 50 | < 50 | CNC(=O)c1nscc1Nc1cc(NC)n2ncc(C(=O)NC3CC3)c2n1 [I-913] |
| 1000 to 10000 | < 50 | < 50 | CNc1cc(Nc2cccn([C@@H]3CCCC[C@@H]3OC)c2=O)nc2c(C(=O)N[C@@H]3C[C@@H]3F)cnn12 [I-915] |
| 200 to 1000 | < 50 | < 50 | CNc1cc(-c2cn(CCN3CCN(C)CC3)c3ncccc23)nc2c(C(=O)N[C@@H]3CC[C@H]3O)cnn12 [I-921, N-((1R,2R)-2-hydroxycyclobutyl)-7-(methylamino)-5-(1-(2-(4-methylpiperazin-1-yl)ethyl)-1H-pyrrolo[2,3-b]pyridin-3-yl)pyrazolo[1,5-a]pyrimidine-3-carboxamide] |
| 200 to 1000 | < 50 | < 50 | CNc1cc(Nc2cccn([C@H]3CCC[C@@H](OC)C3)c2=O)nc2c(C(=O)NCC3(CO)CC3)cnn12 [I-928] |
